We go through 41 molecules from ChEMBL document CHEMBL1156829 (Proc Natl Acad Sci U S A, 2008).

For series [1], the system named is Plasmodium falciparum. Kind of series: NOVARTIS: Inhibition of Plasmodium falciparum 3D7 (drug-susceptible) proliferation in erythrocyte-based infection assay. The series is classed as functional, organism-based. Particulars: Plasmodium falciparum, 3D7.
Series [2] deals with Plasmodium falciparum. Kind of series: NOVARTIS: Inhibition of Plasmodium falciparum W2 (drug-resistant) proliferation in erythrocyte-based infection assay. To be noted: Plasmodium falciparum, W2; read-out: EC50. The series is classed as functional, organism-based.
A short description of series [3]: NOVARTIS: Cytotoxicity against human hepatocellular carcinoma cell line (Huh7). The series is classed as toxicity, cell-based, Huh-7. To be noted: Huh7 cells (hepatocellular carcinoma cell line).

As usually defined, the EC50 is the concentration needed to bring the measured effect to its halfway point. In general, CC50 refers to the concentration giving 50% cytotoxicity. The low end stands for greater toxicity to the cells, the high end for lower toxicity to the cells. Regarding `Nc1nc(N)c2cc(S(=O)(=O)N3CCCC3)ccc2n1`, the EC50 with Plasmodium falciparum [1] is 58.5 nM; in the series on Plasmodium falciparum [2], > 1250 nM. This molecule also had a CC50 in series [3] of 12900 nM.
The corresponding values for `NC(=O)Cc1ccccc1` are > 12500 nM, 9500 nM and > 100000 nM.
The corresponding values for `CCSc1sc2sccc2[n+]1CC` are 944 nM, 833 nM and > 8580 nM.
The corresponding values for `O=C(c1ccccc1)c1cc(Cl)ccc1NCCBr` are > 1250 nM, > 955 nM and > 10000 nM.
As for `Cc1c(Cl)cccc1NCC(=O)NN=C1CCCC1`, the values for the EC50 in the series on Plasmodium falciparum [1] and in the series on Plasmodium falciparum [2] were > 1250 nM and > 948 nM, respectively. The CC50 in series [3] is > 10000 nM.
In the case of `Oc1ccc2cc(-c3nc4ccccc4[nH]3)c3nc4ccccc4n3c2c1`, the EC50 is > 1050 nM in the series on Plasmodium falciparum [1] and 970 nM with Plasmodium falciparum [2]. In series [3], the CC50 is > 10000 nM.
For the molecule `CSc1nccc(-c2cc(F)cc3c2OC(CNC(=O)C2CC(=O)c4ccccc42)C3)n1` (stereo not drawn), the figures for the EC50 in the series on Plasmodium falciparum [1] and in the series on Plasmodium falciparum [2] were 1800 nM and > 969 nM, respectively. Further, the CC50 in series [3] is > 10000 nM.
On to `CCN1CCN(CC=Cc2ccccc2[N+](=O)[O-])CC1`, for which the figures for the EC50 in the series with Plasmodium falciparum [1] and in the series on Plasmodium falciparum [2] were > 12500 nM and > 9690 nM, respectively. In series [3], the CC50 is > 100000 nM.
`Cc1cc(-c2cn[nH]c2C2CCCN(C(=O)Cc3ccccc3F)C2)on1` (stereo not drawn): the results for the EC50 in the series on Plasmodium falciparum [1] and in the series with Plasmodium falciparum [2] were > 1250 nM and > 969 nM, respectively. The CC50 in series [3] was > 10000 nM.
The like results for `CCOc1ccc(C(=O)Nc2cccc(-c3nc4cc(C)ccc4o3)c2C)cc1` were, in that order, > 1250 nM, > 968 nM and > 10000 nM.
The like results for `OC(CN1CCOCC1)Cn1cnc2c(SCc3ccccc3)ncnc21` (stereo not drawn) were, in that order, > 12500 nM, > 9670 nM and > 100000 nM.
With `CCCCCN(CC(=O)Nc1cc(C(C)(C)C)nn1-c1ccc(Cl)c(Cl)c1)C(=O)c1ccc2c(c1)OCO2`, the EC50 is 1040 nM in the series on Plasmodium falciparum [1] and 966 nM in the series with Plasmodium falciparum [2]. Besides, the CC50 in series [3] was > 10000 nM.
Turning to `O=C(O)c1cccc(N2N=C(c3ccccc3)CC2=O)c1`, the EC50 with Plasmodium falciparum [1] was > 12500 nM; in the series on Plasmodium falciparum [2] it was > 9630 nM. The CC50 in series [3] was > 100000 nM.
The like results for `Oc1ccc(-c2cncc(NCc3ccc4c(c3)OCO4)c2)cc1` were, in that order, 1170 nM, 960 nM and > 10000 nM.
On to `O=C1C2CN(C(=O)Nc3ccccc3)C(c3ccc(Cl)cc3)C2C(=O)N1c1ccccc1` (stereo not drawn), for which the EC50 in the series on Plasmodium falciparum [1] is > 1250 nM; in the series with Plasmodium falciparum [2] it was > 958 nM. In addition, the CC50 in series [3] is > 10000 nM.
As to `O=C(Nc1ccccc1)/C(=C\c1ccncc1)NC(=O)c1ccccc1`, the results for the EC50 in the series with Plasmodium falciparum [1] and in the series with Plasmodium falciparum [2] were > 1250 nM and > 955 nM, respectively. Moreover, the CC50 in series [3] was > 10000 nM.
Turning to `CC(C)Nc1nc(-c2cccnc2)nc2ccccc12`, the EC50 in the series with Plasmodium falciparum [1] was > 829 nM; in the series on Plasmodium falciparum [2] it was > 955 nM. For the same molecule, the CC50 in series [3] was > 10000 nM.
The corresponding values for `COc1ccc(OC)c(-c2ccc(O)c(CNC3CCCCC3)c2)c1` are 842 nM, 953 nM and > 10000 nM.
The like results for `COc1ccc(CNC(=O)c2ccc3c(c2)N=C(/C=C/c2ccccc2)N(CCN2CCOCC2)C3)cc1` were, in that order, 790 nM, > 949 nM and > 10000 nM.
The like results for `CCN(CC)CCN(Cc1cc2cc(OC)ccc2[nH]c1=O)C(=S)Nc1cccc(Cl)c1` were, in that order, 1190 nM, 2190 nM and 23100 nM.
For the molecule `COc1ccc(OC)c(-c2ccc(O)c(CNC3CCCCCCC3)c2)c1`, the EC50 in the series on Plasmodium falciparum [1] is 767 nM; with Plasmodium falciparum [2] it was 952 nM. Further, the CC50 in series [3] is > 10000 nM.
`O=c1c2c3c(sc2ncn1Cc1cccc(Cl)c1)CC(N1CCCCC1)CC3` (stereo not drawn): the EC50 was 2950 nM in the series with Plasmodium falciparum [1] and 2640 nM with Plasmodium falciparum [2]. Besides, the CC50 in series [3] was 27800 nM.
The corresponding values for `COC(=O)c1c(-c2c(F)cccc2Cl)noc1C=CNc1ccccc1` are 11400 nM, 6980 nM and 73700 nM.
With `Cc1ccc(NC=C2C(=O)NC(=S)NC2=O)cc1`, the 50% effective concentration (EC50) with Plasmodium falciparum [1] was > 12500 nM; in the series with Plasmodium falciparum [2] it was > 9490 nM. The CC50 in series [3] was > 100000 nM.
The like results for `COCC(=O)NC(c1ccccc1)c1cc(Cl)c2cccnc2c1O` (stereo not drawn) were, in that order, 1050 nM, 950 nM and > 10000 nM.
The like results for `Nc1nc(N)nc(C(c2ccccc2)c2ccccc2)n1` were, in that order, 1090 nM, > 1250 nM and > 13200 nM.
Consider `COc1ccc(/C=C2\N=C(c3ccc(Cl)cc3)N(c3cc(Cl)ccc3C)C2=O)cc1OC`, for which the EC50 in the series with Plasmodium falciparum [1] is > 1250 nM; with Plasmodium falciparum [2], > 949 nM. In addition, in series [3], the CC50 was > 10000 nM.
Take `COc1cc(NC(C)CCCN(Cc2ccc(Cl)cc2)C(=O)c2ccc(Cl)cc2Cl)c2ncccc2c1` (stereo not drawn): the half-maximal effective concentration (EC50) is 376 nM with Plasmodium falciparum [1] and 473 nM with Plasmodium falciparum [2]. In series [3], the midpoint of cytotoxicity, the CC50, lay at 4870 nM.
Regarding `CCCNC(=O)Cn1nc(C)n2c(cc3sccc32)c1=O`, the EC50 with Plasmodium falciparum [1] was > 1250 nM; in the series on Plasmodium falciparum [2] it was > 971 nM. In addition, the CC50 in series [3] was > 10000 nM.
The corresponding values for `CCNC1=C(C(=O)c2ccccc2)N(CC(=O)c2ccc(Br)cc2)S(=O)(=O)c2ccccc21` are > 1250 nM, 966 nM and > 10000 nM.
The like results for `Cc1ccccc1CSc1ccc(-c2cccs2)nn1` were, in that order, > 1060 nM, 963 nM and > 10000 nM.
The corresponding values for `COc1ccc2c(c1)sc1nc(C)c(C)c(C)[n+]12` are 688 nM, > 952 nM and > 10000 nM.
In the case of `Cc1ccc(Nc2cc(C)nc(NCc3ccccc3)n2)c(C)c1`, the EC50 in the series with Plasmodium falciparum [1] was determined as 306 nM; in the series on Plasmodium falciparum [2], 619 nM. The same molecule came in with a CC50 in series [3] of 6510 nM.
The corresponding values for `CC1CCCC(NC(=O)C2N(CCN3CCCCC3C)C(=O)C3C(C(=O)Nc4cccc(Cl)c4)C4C=CC32O4)C1C` (stereo not drawn) are > 10400 nM, 4610 nM and 47700 nM.
The corresponding values for `COc1ccc(CC(=O)Nc2ccc(S(=O)(=O)N3CCCCCC3)cc2)cc1` are > 12500 nM, 9690 nM and > 100000 nM.
The like results for `O=C1NN=C2C1=NC1(CCCCC1)Cc1ccccc12` were, in that order, 325 nM, 376 nM and 3900 nM.
With `S=C(NN=Cc1ccccn1)NC1CC2CC1C1C=CCC21` (stereo not drawn), the EC50 with Plasmodium falciparum [1] is 123 nM; in the series with Plasmodium falciparum [2], 109 nM. Besides, the CC50 in series [3] was > 1140 nM.
The like results for `c1cncc(-c2cc(NCCCn3ccnc3)nc(-c3ccncc3)n2)c1` were, in that order, 1090 nM, 956 nM and > 10000 nM.
Consider `O=C(Cn1c(=O)oc2cc(S(=O)(=O)NCc3ccccc3)ccc21)NC1CCCCC1`, for which the figures for the EC50 in the series with Plasmodium falciparum [1] and in the series with Plasmodium falciparum [2] were > 1250 nM and > 955 nM, respectively. Further, the CC50 in series [3] was > 10000 nM.
The like results for `O=C(Nc1cc(C(F)(F)F)ccc1OCc1ccccc1)c1ccccc1O` were, in that order, > 1250 nM, 949 nM and > 10000 nM.
The corresponding values for `CCOc1ccc2nc(C)c(CN(C)Cc3ccccc3)c(O)c2c1` are > 1250 nM, 969 nM and > 10000 nM.
